# pIC50: −log10 of the molar value.
# Biological target: T1, GLUT1 (Homo sapiens, UniProt P11166)
# T1 sequence (P11166 1-492): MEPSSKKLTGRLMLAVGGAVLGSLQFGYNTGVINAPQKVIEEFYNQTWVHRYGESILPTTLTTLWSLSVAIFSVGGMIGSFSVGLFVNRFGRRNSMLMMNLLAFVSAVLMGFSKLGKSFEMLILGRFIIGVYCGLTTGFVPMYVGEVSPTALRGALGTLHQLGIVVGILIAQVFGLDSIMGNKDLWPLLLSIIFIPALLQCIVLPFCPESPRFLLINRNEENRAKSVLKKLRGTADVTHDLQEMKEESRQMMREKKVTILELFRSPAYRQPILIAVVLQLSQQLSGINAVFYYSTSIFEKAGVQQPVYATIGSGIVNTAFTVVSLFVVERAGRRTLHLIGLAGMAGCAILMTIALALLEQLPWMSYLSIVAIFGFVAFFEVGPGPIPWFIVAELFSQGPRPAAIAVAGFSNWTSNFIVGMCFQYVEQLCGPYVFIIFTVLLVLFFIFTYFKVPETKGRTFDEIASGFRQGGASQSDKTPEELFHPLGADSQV
# Assay: Indirect measurement of GLUT1 activity by quantification of intracellular ATP levels (glucose induced ATP increase)
# Type: cell-based
# Parameters: endogenous in cells; host or cells: DLD1 or CHO-K1
# Conditions: read-out: IC50 regarding glucose induced ATP increase (GLUT1 inhibition)
# In short: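 DLD1 or CHO-K1 cells were starved overnight in glucose-free medium with 1% FCS, then combined with an oxidative phosphorylation inhibitor. GLUT1 activity was read as glucose-induced ATP increase, GLUT2 as fructose-induced. Intracellular ATP was quantified by CellTiter-Glo luminescence.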
row,pIC50,SMILES
1,7.16,COc1ccccc1Cn1nc(C(F)(F)F)c(NC(=O)c2cc(C(N)=O)nc3cccc(F)c23)c1C [Example 1493]
2,7.53,Cc1c(NC(=O)c2cc(C(N)=O)nc3cc(F)ccc23)c(C(F)(F)F)nn1Cc1ccc(S(C)(=O)=O)cc1 [Example 1429]
3,8.34,Cc1nn(Cc2c(F)cccc2F)c(C)c1NC(=O)c1cc(C(N)=O)nc2cccc(F)c12 [Example 1633]
4,6.68,Cc1nn(CC(=O)Nc2ccc(F)cc2)c(C)c1NC(=O)c1cc(C(N)=O)nc2ccccc12 [Example 1692]
5,8.08,"Cc1c(NC(=O)c2cc([S+](C)[O-])nc3ccccc23)c(C(F)(F)F)nn1Cc1ccc(C#N)cc1 (racemic) [Example 383, (±)-N-[1-(4-cyanobenzyl)-5-methyl-3-(trifluoromethyl)-1H-pyrazol-4-yl]-2-(methylsulfinyl)quinoline-4-carboxamide]"
6,8.26,Cc1cccc(Cn2nc(C(F)(F)F)c(NC(=O)c3cc(C(N)=O)nc4cc(F)c(Cl)cc34)c2C)c1 [Example 1481]
7,5.78,Cc1nn(Cc2noc(C(=O)N(C)C)n2)c(C)c1NC(=O)c1cc(C(N)=O)nc2ccccc12 [Example 1521]
8,8.96,Cc1c(NC(=O)c2cc(C(N)=O)nc3cc(F)c(Cl)cc23)c(C(F)(F)F)nn1Cc1ccc(CC#N)cc1 [Example 1594]
9,6.21,Cc1c(NC(=O)c2cc(C(N)=O)nc3cccc(F)c23)c(C(F)(F)F)nn1Cc1ccccc1OC(F)(F)F [Example 1706]
10,6.36,CCN(CC)C(=O)c1ccc(Cn2nc(C)c(NC(=O)c3cc(C(F)(F)F)nc4ccc(Br)cc34)c2C)cc1 [Example 1203]
11,7.53,Cc1c(NC(=O)c2cc(C(N)=O)nc3cccc(F)c23)c(C(F)(F)F)nn1Cc1cccc(C(N)=O)c1 [Example 1602]
12,8.27,Cc1c(NC(=O)c2cc(C(N)=O)nc3cccc(F)c23)c(C(F)(F)F)nn1Cc1ccc(F)cc1F [Example 1440]
13,7.46,Cc1nn(Cc2ccc(F)cc2)c(C)c1NC(=O)c1cc(C(F)(F)F)nc2ccc([N+](=O)[O-])cc12 [Example 1088]
14,8.25,"CCS(=O)(=O)N1CCC(Cn2nc(C(F)(F)F)c(NC(=O)c3cc(C(N)=O)nc4cc(F)c(Cl)cc34)c2C)CC1 [Example 413, 6-chloro-N^4-[1-{[1-(ethylsulfonyl)piperidin-4-yl]methyl}-5-methyl-3-(trifluoromethyl)-1H-pyrazol-4-yl]-7-fluoroquinoline-2,4-dicarboxamide]"
15,7.00,Cc1nn(Cc2ccc(C(=O)NCCOc3ccccc3)cc2)c(C)c1NC(=O)c1cc(C(F)(F)F)nc2ccc(Br)cc12 [Example 1137]
16,8.26,"CCc1nc(Cn2nc(C(F)(F)F)c(NC(=O)c3cc(C(N)=O)nc4cc(F)c(Cl)cc34)c2C)no1 [Example 409, 6-chloro-N^4-{1-[(5-ethyl-1,2,4-oxadiazol-3-yl)methyl]-5-methyl-3-(trifluoromethyl)-1H-pyrazol-4-yl}-7-fluoroquinoline-2,4-dicarboxamide]"
17,6.19,Cc1nn(Cc2ccc(C(=O)N[C@H]3CCCC[C@@H]3O)cc2)c(C)c1NC(=O)c1cc(C(F)(F)F)nc2ccc(Br)cc12 [Example 1215]
18,7.20,COc1cc(C(=O)Nc2c(C(F)(F)F)nn(Cc3ccc(F)cc3)c2C)c2ccccc2n1 [Example 1436]

# The remaining lines, values behind:
row,SMILES,pIC50
1,"Cc1nn(Cc2ccc(C#N)cc2F)c(C)c1NC(=O)c1cc(C(N)=O)nc2cccc(F)c12 [Example 301, N^4-[1-(4-cyano-2-fluorobenzyl)-3,5-dimethyl-1H-pyrazol-4-yl]-5-fluoroquinoline-2,4-dicarboxamide]",9.30
2,"CCc1c(NC(=O)c2cc(C(N)=O)nc3ccccc23)c(C)nn1Cc1ccc(C#N)cc1 [Example 326, N^4-[1-(4-cyanobenzyl)-5-ethyl-3-methyl-1H-pyrazol-4-yl]quinoline-2,4-dicarboxamide]",7.84
3,"Cc1nn(Cc2ccc(CC(=O)NCCO)cc2)c(C)c1NC(=O)c1cc(C(F)(F)F)nc2ccc(Br)cc12 [Example 159, 6-bromo-N-[1-(4-{2-[(2-hydroxyethyl)amino]-2-oxoethyl}benzyl)-3,5-dimethyl-1H-pyrazol-4-yl]-2-(trifluoromethyl)quinoline-4-carboxamide]",6.06
4,"Cc1c(NC(=O)c2cc(C(N)=O)nc3ccc(Br)cc23)c(C(F)(F)F)nn1Cc1ccc(C#N)cc1F [Example 305, 6-bromo-N^4-[1-(4-cyano-2-fluorobenzyl)-5-methyl-3-(trifluoromethyl)-1H-pyrazol-4-yl]quinoline-2,4-dicarboxamide]",8.85
5,"Cc1c(NC(=O)c2cc(C(N)=O)nc3ccccc23)c(C(F)(F)F)nn1C(C)c1ccc(C#N)cc1 (racemic) [Example 333, (±)-N^4-{1-[1-(4-cyanophenyl)ethyl]-5-methyl-3-(trifluoromethyl)-1H-pyrazol-4-yl}quinoline-2,4-dicarboxamide]",9.22
6,"Cc1nn(Cc2ccc(Cl)cc2)c(C)c1NC(=O)c1cc(C(F)(F)F)nc2ccc(Br)cc12 [Example 148, 6-bromo-N-[1-(4-chlorobenzyl)-3,5-dimethyl-1H-pyrazol-4-yl]-2-(trifluoromethyl)quinoline-4-carboxamide]",7.94
7,"Cc1nn(Cc2ccc(F)cc2)c(C)c1NC(=O)c1cc(C(F)(F)F)nc2ccc(-c3ccccc3)cc12 [Example 166, N-[1-(4-fluorobenzyl)-3,5-dimethyl-1H-pyrazol-4-yl]-6-phenyl-2-(trifluoromethyl)quinoline-4-carboxamide]",7.39
8,"Cc1c(NC(=O)c2cc(C(F)(F)F)nc3c(Cl)cc(Cl)cc23)c(C(F)(F)F)nn1Cc1ccc(C#N)cc1 [Example 167, 6,8-dichloro-N-[1-(4-cyanobenzyl)-5-methyl-3-(trifluoromethyl)-1H-pyrazol-4-yl]-2-(trifluoromethyl)quinoline-4-carboxamide]",7.34
9,"Cc1c(NC(=O)c2cc(C(N)=O)nc3c(F)cccc23)c(C(F)(F)F)nn1Cc1ccc(C#N)cc1 [Example 247, N^4-[1-(4-cyanobenzyl)-5-methyl-3-(trifluoromethyl)-1H-pyrazol-4-yl]-8-fluoroquinoline-2,4-dicarboxamide]",8.31
10,"Cc1ccc2nc(C3CC3)cc(C(=O)Nc3c(C)nn(Cc4ccc(F)cc4)c3C)c2c1 [Example 7, 2-cyclopropyl-N-[1-(4-fluorobenzyl)-3,5-dimethyl-1H-pyrazol-4-yl]-6-methylquinoline-4-carboxamide]",8.31
11,"CNC(=O)c1ccc(Cn2nc(C(F)(F)F)c(NC(=O)c3cc(C(N)=O)nc4cc(F)ccc34)c2C)cc1 [Example 370, 7-fluoro-N^4-{5-methyl-1-[4-(methylcarbamoyl)benzyl]-3-(trifluoromethyl)-1H-pyrazol-4-yl}quinoline-2,4-dicarboxamide]",7.89
12,"Cc1c(NC(=O)c2cc(C(F)(F)F)nc3cc(F)c(F)cc23)c(C(F)(F)F)nn1Cc1ccc(F)c(F)c1 [Example 207, N-[1-(3,4-difluorobenzyl)-5-methyl-3-(trifluoromethyl)-1H-pyrazol-4-yl]-6,7-difluoro-2-(trifluoromethyl)quinoline-4-carboxamide]",6.16
13,"Cc1c(NC(=O)c2cc(C(N)=O)nc3cc(F)c(F)cc23)c(C(F)(F)F)nn1Cc1ccc(C#N)cc1F [Example 304, N^4-[1-(4-cyano-2-fluorobenzyl)-5-methyl-3-(trifluoromethyl)-1H-pyrazol-4-yl]-6,7-difluoroquinoline-2,4-dicarboxamide]",8.44
14,"Cc1nn(Cc2ccc(C#N)cc2)c(C)c1NC(=O)c1cc(C(N)=O)nc2cc(Cl)ccc12 [Example 260, 7-chloro-N^4-[1-(4-cyanobenzyl)-3,5-dimethyl-1H-pyrazol-4-yl]quinoline-2,4-dicarboxamide]",8.33
15,"Cc1c(NC(=O)c2cc(C(N)=O)nc3cc(F)ccc23)c(C(F)(F)F)nn1Cc1ccc(C(=O)NCCO)cc1 [Example 375, 7-fluoro-N^4-[1-{4-[(2-hydroxyethyl)carbamoyl]benzyl}-5-methyl-3-(trifluoromethyl)-1H-pyrazol-4-yl]quinoline-2,4-dicarboxamide]",6.91
16,"COc1ccc(Cn2nc(C)c(NC(=O)c3cc(C(N)=O)nc4cc(F)ccc34)c2C)cc1 [Example 275, 7-fluoro-N^4-[1-(4-methoxybenzyl)-3,5-dimethyl-1H-pyrazol-4-yl]quinoline-2,4-dicarboxamide]",8.96
17,"Cc1c(NC(=O)c2cc(C(N)=O)nc3ccccc23)c(C(F)(F)F)nn1Cc1ccc(C#N)cc1F [Example 302, N^4-[1-(4-cyano-2-fluorobenzyl)-5-methyl-3-(trifluoromethyl)-1H-pyrazol-4-yl]quinoline-2,4-dicarboxamide]",8.96
18,"Cc1ccc2nc(C)cc(C(=O)Nc3c(C)nn(Cc4ccc(OC(F)(F)F)cc4)c3C)c2c1 [Example 58, N-{3,5-dimethyl-1-[4-(trifluoromethoxy)benzyl]-1H-pyrazol-4-yl}-2,6-dimethylquinoline-4-carboxamide]",7.11
19,"Cc1nn(Cc2ccc(C(=O)NCc3ccccc3)cc2)c(C)c1NC(=O)c1cc(C(F)(F)F)nc2ccc(Br)cc12 [Example 140, N-{1-[4-(benzylcarbamoyl)benzyl]-3,5-dimethyl-1H-pyrazol-4-yl}-6-bromo-2-(trifluoromethyl)quinoline-4-carboxamide]",7.30
